ChEMBL document CHEMBL1136991, “Novel potent BRAF inhibitors: toward 1 nM compounds through optimization of the central phenyl ring” (J Med Chem, 2009)

Columns and labels:
[1] = target: T1, Serine/threonine-protein kinase Nek2 (Homo sapiens) (UniProt P51955); experiment: Inhibition of NEK2a at 1 uM relative to control
T1 sequence (whole entry): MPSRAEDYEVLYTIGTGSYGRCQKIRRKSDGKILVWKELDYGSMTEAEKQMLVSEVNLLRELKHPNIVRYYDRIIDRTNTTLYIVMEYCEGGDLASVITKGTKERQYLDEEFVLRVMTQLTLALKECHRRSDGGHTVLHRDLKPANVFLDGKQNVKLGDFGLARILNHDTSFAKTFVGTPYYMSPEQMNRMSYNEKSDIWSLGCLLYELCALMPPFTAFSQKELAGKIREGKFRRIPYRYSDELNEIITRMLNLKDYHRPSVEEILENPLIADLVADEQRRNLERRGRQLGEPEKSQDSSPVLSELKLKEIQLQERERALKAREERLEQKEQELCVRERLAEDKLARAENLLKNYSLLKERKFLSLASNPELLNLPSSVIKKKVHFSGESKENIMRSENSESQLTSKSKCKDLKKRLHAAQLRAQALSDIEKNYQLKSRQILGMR

[2] = target: Serine/threonine-protein kinase pim-1 (Homo sapiens) (UniProt P11309); experiment: Inhibition of PIM1 at 1 uM relative to control
[3] = target: T2, Protein kinase C zeta type (Homo sapiens) (UniProt Q05513); experiment: Inhibition of PKCzeta at 1 uM relative to control
T2 sequence (whole entry): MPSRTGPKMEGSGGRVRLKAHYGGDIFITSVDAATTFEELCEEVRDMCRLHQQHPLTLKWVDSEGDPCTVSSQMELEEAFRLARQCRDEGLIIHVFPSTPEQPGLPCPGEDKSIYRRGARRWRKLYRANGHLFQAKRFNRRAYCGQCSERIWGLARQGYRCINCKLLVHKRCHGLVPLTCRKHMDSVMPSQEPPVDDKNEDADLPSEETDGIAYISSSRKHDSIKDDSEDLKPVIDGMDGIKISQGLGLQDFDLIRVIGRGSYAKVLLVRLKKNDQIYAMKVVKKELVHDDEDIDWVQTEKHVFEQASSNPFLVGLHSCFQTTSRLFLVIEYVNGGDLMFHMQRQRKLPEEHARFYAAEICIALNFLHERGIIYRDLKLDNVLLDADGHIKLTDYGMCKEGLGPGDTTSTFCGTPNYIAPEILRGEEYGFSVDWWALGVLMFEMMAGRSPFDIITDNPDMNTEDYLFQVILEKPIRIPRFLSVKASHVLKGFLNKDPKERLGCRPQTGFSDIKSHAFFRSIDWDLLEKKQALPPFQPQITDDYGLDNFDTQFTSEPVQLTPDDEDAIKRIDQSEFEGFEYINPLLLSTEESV

[4] = target: Homeodomain-interacting protein kinase 3 (Homo sapiens) (UniProt Q9H422); experiment: Inhibition of HIPK3 at 1 uM relative to control
[5] = target: SRSF protein kinase 1 (Homo sapiens) (UniProt Q96SB4); experiment: Inhibition of SRPK1 at 1 uM relative to control
[6] = target: Tyrosine-protein kinase CSK (Homo sapiens) (UniProt P41240); experiment: Inhibition of CSK at 1 uM relative to control
[7] = target: T3, Dual specificity tyrosine-phosphorylation-regulated kinase 3 (Homo sapiens) (UniProt O43781); experiment: Inhibition of DYRK3 at 1 uM relative to control
T3 sequence (whole entry): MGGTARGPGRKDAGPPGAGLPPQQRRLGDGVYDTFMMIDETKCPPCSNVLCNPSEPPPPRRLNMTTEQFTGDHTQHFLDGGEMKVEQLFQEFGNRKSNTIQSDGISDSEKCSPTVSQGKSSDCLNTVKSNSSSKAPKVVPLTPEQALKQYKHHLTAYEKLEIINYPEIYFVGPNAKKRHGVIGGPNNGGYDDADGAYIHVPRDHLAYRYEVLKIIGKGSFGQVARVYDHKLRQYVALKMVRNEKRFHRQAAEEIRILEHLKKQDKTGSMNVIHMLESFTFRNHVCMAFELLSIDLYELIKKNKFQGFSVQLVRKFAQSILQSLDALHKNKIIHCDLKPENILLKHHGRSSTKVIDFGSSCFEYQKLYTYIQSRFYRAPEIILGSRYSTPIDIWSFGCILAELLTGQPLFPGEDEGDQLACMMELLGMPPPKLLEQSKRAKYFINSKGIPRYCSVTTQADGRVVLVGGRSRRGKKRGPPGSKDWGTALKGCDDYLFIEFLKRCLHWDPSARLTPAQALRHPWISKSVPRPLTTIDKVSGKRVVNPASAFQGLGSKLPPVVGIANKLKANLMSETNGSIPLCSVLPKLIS

[8] = target: Dual specificity mitogen-activated protein kinase kinase 1 (Homo sapiens) (UniProt Q02750); experiment: Inhibition of MKK1 at 1 uM relative to control
[9] = target: [Pyruvate dehydrogenase (acetyl-transferring)] kinase isozyme 1, mitochondrial (Homo sapiens) (UniProt Q15118); experiment: Inhibition of PDK1 at 1 uM relative to control
[10] = target: T4, Inhibitor of nuclear factor kappa-B kinase subunit beta (Homo sapiens) (UniProt O14920); experiment: Inhibition of IKK-beta at 1 uM relative to control
T4 sequence (whole entry): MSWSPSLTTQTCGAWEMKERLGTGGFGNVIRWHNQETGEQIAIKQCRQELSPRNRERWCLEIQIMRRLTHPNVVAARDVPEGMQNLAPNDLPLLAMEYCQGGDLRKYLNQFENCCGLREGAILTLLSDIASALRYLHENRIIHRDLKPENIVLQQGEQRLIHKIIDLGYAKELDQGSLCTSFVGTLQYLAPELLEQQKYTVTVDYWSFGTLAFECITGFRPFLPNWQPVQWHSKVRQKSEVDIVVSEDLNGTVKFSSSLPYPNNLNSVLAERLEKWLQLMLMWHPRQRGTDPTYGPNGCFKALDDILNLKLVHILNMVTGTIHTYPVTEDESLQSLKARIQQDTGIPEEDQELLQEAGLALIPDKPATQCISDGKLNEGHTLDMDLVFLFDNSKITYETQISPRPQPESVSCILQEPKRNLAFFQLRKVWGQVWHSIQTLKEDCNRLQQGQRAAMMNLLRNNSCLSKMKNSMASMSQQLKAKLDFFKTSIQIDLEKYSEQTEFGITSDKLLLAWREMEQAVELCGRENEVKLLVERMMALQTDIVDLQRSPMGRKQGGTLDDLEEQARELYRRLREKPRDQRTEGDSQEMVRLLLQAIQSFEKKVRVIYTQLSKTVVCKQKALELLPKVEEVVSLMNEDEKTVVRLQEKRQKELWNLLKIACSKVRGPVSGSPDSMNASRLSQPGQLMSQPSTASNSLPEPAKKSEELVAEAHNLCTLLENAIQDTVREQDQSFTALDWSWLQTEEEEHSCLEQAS

[11] = target: Homeodomain-interacting protein kinase 2 (Homo sapiens) (UniProt Q9H2X6); experiment: Inhibition of HIPK2 at 1 uM relative to control
[12] = target: Glycogen synthase kinase-3 beta (Homo sapiens) (UniProt P49841); experiment: Inhibition of GSK3-beta at 1 uM relative to control
Chain of Glycogen synthase kinase-3 beta (Homo sapiens) (P49841 whole entry, looked up): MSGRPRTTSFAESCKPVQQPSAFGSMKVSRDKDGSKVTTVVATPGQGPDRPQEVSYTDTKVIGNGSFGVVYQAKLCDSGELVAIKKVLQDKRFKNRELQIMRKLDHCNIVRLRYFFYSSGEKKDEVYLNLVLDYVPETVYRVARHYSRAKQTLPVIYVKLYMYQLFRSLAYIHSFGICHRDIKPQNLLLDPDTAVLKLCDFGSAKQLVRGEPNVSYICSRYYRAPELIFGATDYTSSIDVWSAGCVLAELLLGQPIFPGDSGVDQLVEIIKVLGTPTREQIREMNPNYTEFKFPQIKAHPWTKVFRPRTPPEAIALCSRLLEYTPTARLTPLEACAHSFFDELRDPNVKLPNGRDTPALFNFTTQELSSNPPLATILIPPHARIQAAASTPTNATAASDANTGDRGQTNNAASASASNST

Chain of Tyrosine-protein kinase CSK (Homo sapiens) (P41240 2-450 limits assumed): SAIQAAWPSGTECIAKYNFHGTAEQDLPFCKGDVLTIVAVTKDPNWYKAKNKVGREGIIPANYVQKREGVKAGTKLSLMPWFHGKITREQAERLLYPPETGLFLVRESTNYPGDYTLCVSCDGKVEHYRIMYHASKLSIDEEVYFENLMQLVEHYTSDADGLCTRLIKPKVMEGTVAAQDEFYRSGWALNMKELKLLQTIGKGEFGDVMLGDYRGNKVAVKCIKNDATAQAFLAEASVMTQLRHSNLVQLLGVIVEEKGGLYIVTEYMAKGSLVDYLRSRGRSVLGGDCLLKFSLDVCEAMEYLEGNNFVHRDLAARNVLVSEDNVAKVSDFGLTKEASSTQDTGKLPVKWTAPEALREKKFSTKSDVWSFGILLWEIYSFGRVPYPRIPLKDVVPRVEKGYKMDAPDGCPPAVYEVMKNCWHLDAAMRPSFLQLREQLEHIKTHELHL
Chain of Homeodomain-interacting protein kinase 2 (Homo sapiens) (Q9H2X6 whole entry, looked up): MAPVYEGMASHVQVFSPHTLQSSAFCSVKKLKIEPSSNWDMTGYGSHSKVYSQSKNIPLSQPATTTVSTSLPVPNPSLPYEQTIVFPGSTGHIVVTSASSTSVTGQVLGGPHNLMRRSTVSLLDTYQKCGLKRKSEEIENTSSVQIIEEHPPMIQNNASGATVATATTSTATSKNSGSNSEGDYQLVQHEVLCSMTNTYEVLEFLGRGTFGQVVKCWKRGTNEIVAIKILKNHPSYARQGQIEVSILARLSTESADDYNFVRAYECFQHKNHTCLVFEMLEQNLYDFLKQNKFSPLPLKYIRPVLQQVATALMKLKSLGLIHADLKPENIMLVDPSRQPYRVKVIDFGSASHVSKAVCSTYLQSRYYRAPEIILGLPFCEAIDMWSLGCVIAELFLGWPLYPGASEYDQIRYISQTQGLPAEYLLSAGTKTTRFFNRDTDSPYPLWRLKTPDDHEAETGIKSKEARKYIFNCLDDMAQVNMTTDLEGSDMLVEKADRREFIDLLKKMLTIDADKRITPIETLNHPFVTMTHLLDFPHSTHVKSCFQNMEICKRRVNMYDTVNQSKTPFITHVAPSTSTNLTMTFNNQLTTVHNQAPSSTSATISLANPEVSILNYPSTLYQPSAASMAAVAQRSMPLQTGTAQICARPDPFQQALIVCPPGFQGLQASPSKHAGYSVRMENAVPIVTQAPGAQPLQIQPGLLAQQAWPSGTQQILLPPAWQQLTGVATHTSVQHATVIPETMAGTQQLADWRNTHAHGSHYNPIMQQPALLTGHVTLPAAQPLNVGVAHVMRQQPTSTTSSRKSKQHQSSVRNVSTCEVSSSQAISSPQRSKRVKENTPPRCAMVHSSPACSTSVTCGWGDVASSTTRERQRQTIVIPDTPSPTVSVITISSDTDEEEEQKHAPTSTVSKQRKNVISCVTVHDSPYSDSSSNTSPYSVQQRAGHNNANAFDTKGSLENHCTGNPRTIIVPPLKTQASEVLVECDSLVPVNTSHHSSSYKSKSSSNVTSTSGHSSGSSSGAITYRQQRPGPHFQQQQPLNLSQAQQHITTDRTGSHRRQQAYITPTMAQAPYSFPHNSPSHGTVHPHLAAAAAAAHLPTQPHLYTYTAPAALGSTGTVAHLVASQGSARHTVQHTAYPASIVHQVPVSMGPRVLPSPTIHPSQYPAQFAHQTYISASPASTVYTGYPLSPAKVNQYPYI
Chain of Serine/threonine-protein kinase pim-1 (Homo sapiens) (P11309 whole entry, looked up): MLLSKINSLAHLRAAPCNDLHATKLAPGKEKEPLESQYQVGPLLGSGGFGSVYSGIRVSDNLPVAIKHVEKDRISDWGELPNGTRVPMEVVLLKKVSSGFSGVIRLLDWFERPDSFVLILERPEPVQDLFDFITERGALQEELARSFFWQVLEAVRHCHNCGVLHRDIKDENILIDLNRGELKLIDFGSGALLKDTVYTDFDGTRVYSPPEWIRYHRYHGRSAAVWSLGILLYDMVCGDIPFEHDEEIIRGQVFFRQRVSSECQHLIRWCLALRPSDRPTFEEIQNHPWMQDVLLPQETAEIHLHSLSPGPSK
Chain of Homeodomain-interacting protein kinase 3 (Homo sapiens) (Q9H422 whole entry, looked up): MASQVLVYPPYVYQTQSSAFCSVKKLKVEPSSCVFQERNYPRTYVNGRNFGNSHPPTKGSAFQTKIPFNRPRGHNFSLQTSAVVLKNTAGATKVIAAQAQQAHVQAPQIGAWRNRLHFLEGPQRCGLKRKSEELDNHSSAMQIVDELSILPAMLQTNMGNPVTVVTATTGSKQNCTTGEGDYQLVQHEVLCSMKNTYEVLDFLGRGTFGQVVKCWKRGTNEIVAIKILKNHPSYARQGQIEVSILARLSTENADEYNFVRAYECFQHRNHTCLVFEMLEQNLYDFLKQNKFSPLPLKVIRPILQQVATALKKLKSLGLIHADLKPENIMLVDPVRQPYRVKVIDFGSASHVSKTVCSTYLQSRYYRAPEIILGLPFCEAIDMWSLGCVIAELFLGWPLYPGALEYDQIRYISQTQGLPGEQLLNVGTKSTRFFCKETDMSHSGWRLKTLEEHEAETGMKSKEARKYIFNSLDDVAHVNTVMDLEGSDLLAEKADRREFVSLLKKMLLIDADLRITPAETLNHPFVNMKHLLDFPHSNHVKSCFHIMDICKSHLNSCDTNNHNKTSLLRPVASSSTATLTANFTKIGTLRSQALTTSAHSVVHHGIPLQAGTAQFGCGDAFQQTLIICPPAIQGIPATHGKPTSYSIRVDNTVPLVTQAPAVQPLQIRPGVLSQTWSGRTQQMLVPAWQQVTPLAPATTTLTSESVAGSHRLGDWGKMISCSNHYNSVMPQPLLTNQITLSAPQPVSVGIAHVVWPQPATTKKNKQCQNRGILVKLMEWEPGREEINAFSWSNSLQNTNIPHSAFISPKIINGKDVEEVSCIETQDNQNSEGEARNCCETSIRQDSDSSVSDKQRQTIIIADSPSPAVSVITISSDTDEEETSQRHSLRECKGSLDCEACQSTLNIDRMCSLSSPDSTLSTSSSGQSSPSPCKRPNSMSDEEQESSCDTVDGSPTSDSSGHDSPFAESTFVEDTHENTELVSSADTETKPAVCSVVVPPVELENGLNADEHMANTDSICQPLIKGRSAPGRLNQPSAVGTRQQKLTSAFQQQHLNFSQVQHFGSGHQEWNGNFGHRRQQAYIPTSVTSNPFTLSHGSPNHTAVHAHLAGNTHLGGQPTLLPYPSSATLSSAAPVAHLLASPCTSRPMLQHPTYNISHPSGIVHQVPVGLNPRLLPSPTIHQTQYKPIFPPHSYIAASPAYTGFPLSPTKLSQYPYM
Chain of SRSF protein kinase 1 (Homo sapiens) (Q96SB4 whole entry): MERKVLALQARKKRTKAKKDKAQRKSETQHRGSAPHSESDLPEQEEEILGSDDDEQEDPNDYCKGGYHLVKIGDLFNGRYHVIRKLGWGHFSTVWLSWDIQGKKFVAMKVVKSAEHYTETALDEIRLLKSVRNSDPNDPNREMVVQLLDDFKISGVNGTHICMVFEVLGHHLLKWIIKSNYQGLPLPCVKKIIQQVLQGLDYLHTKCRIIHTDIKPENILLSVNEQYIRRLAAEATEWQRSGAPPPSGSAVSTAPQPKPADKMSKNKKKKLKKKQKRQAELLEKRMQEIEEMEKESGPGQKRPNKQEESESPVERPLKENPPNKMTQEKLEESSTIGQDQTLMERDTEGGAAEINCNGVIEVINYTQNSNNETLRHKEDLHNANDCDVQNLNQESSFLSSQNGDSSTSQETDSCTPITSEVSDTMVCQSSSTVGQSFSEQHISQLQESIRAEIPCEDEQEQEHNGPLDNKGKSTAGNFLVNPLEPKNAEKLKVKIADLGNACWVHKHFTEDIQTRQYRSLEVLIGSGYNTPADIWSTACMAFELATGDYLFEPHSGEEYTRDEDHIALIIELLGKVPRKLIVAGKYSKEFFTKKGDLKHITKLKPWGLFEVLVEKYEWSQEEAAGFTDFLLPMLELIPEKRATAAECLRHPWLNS
Chain of Dual specificity mitogen-activated protein kinase kinase 1 (Homo sapiens) (Q02750 whole entry): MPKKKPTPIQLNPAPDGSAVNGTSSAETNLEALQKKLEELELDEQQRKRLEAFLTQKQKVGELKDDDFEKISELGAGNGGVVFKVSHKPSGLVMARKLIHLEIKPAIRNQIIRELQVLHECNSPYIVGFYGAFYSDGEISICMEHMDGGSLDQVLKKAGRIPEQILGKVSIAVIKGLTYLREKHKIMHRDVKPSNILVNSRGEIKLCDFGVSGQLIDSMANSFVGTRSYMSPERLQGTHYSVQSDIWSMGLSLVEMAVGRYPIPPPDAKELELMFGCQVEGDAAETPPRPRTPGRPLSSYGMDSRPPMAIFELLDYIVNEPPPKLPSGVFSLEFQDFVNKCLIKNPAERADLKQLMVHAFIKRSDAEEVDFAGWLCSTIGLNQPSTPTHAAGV

Row | SMILES | residual activity [1] [%] | residual activity [2] [%] | residual activity [3] [%] | residual activity [4] [%] | residual activity [5] [%] | residual activity [6] [%] | residual activity [7] [%] | residual activity [8] [%] | residual activity [9] [%] | residual activity [10] [%] | residual activity [11] [%] | residual activity [12] [%]
1 | O=C(Nc1cc(C(F)(F)F)ccc1F)Nc1ccc(Oc2ccnc3[nH]c(=O)[nH]c23)c2ccccc12 | 100 | 75 | 75 | 100 | 75 | < 25 | 100 | 100 | 100 | 100 | 100 | 75
2 | CC(C)(C)c1cccc(NC(=O)Nc2ccc(Oc3ccnc4[nH]c(=O)[nH]c34)c3ccccc23)c1 | 75 | 75 | 75 | 100 | 75 | 50 | 75 | 75 | 100 | 75 | 75 | 75
3 | CSc1cc(Oc2ccnc3[nH]c(=O)[nH]c23)ccc1NC(=O)Nc1cccc(C(F)(F)F)c1 | 100 | 100 | 75 | 100 | 75 | < 25 | 75 | 100 | 100 | 100 | 75 | 100
